The source of these data is patent US20190000079A1, “Methods and Formulation for Treatment of Nuts, Seeds, Grains, Cereals, Plant Growth Media, and Plants” (Lipotec Laboratories, LLC, priority 2015, published 2019).

Holding throughout (assay): Growth experiment, coated vs uncoated seeds planted in soil
Data set [1] has as its system soybeans. In kind it is in vivo, soybean. The text has this:
(§1) Groups of coated and uncoated soybeans, corn, sunflower, and turfgrass were planted in soil and monitored for germination.

Data set [2] deals with corn. In kind it is in vivo.
From the text: as §1

Data set [3] concerns sunflower. In kind it is in vivo.
From the text: as §1

Turning to `COc1cc(/C=C/C(=O)CC(=O)/C=C/c2ccc(O)c(OC)c2)ccc1O` [curcumin, Curcumin], the “germination time of coated seeds” value turned out to be 2 days in data set [1] (soybean seeds coated with DMSO and curcumin, planted in soil, same as uncoated); 2 days in data set [2] (corn seeds coated with DMSO and curcumin, planted in soil, same as uncoated); 2 days in data set [3] (sunflower seeds coated with DMSO and curcumin, planted in soil, same as uncoated). Besides, the “height and diameter, coated vs uncoated” value in data set [1] (soybean, after 3 weeks) was “equal height and diameter”; in data set [2] (corn, after 3 weeks) it was “equal height and diameter”; in data set [3] (sunflower, after 3 weeks) it was “equal height and diameter”.
